# Reference: ChEMBL document CHEMBL5712891, “Inhibition of BET bromodomain-dependent XIAP and FLIP expression sensitizes KRAS-mutated NSCLC to pro-apoptotic agents” (Cell Death Dis, 2016)
# Activity calls are given as the source filed them. The rule behind the calls is not given here.
# How the values were obtained:
# [1] = test system: A549; assay: Induction of apoptosis in human A549 cells assessed as early apoptotic cells at 0.5 uM for 24 hrs by annexin V-PI staining based flow cytometric analysis (reference value: 0.4%); format: functional
# [2] = test system: A549; assay: Downregulation of FLIP mRNA expression level in human A549 cells at 0.1 to 1 uM for 24 hrs by qRT-PCR analysis; format: functional, cell-based; conditions: dose 0.1-1 µM
# [3] = test system: NCI-H1373; assay: Induction of cell cycle arrest in human NCI-H1373 cells assessed as accumulation of cells at G2/M phase at 1 uM for 24 hrs by Click-iT EdU Alexa Fluor 647 flow cytometric assay kit analysis (reference value: 13%); format: functional
# [4] = test system: NCI-H1792; assay: Downregulation of c-MYC mRNA expression level in human NCI-H1792 cells at 0.1 to 1 uM for 24 hrs by qRT-PCR analysis; format: functional, cell-based; conditions: dose 0.1-1 µM
# [5] = test system: NCI-H1373; assay: Downregulation of c-MYC protein level in human NCI-H1373 cells upto 24 hrs by Western blot analysis; format: functional, cell-based; conditions: dose 100-5000 nM
# [6] = test system: LCLC-97TM1; assay: Downregulation of XIAP protein expression level in human LCLC-97TM1 cells at 1 uM for 24 hrs by […] analysis; format: functional, cell-based
# [7] = test system: A549; assay: Induction of apoptosis in human A549 cells assessed as viable cells at 2.5 uM for 24 hrs by annexin V-PI staining based flow cytometric analysis (reference value: 96%); format: functional; conditions: read-out: Activity
# [8] = test system: NCI-H1373; assay: Induction of cell cycle arrest in human NCI-H1373 cells assessed as accumulation of cells at S phase at 1 uM for 24 hrs by Click-iT EdU Alexa Fluor 647 flow cytometric assay kit analysis (reference value: 45%); format: functional
# [9] = test system: NCI-H1373; assay: Induction of cell cycle arrest in human NCI-H1373 cells assessed as accumulation of cells at S phase at 0.5 uM for 24 hrs by Click-iT EdU Alexa Fluor 647 flow cytometric assay kit analysis (reference value: 45%); format: functional
# [10] = test system: NCI-H1373; assay: Induction of cell cycle arrest in human NCI-H1373 cells assessed as accumulation of cells at G2/M phase at 0.1 uM for 24 hrs by Click-iT EdU Alexa Fluor 647 flow cytometric assay kit analysis (reference value: 13%); format: functional
# [11] = test system: A549; assay: Downregulation of XIAP protein expression level in human A549 cells at 1 uM for 24 hrs by […] analysis; format: functional, cell-based
# [12] = test system: NCI-H441; assay: Downregulation of XIAP mRNA expression level in human NCI-H441 cells at 0.1 to 1 uM for 24 hrs by qRT-PCR analysis; format: functional, cell-based; conditions: dose 0.1-1 µM
# [13] = test system: NCI-H1373; assay: Induction of apoptosis in human NCI-H1373 cells assessed as late apoptotic cells at 0.5 uM for 24 hrs by annexin V-PI staining based flow cytometric analysis (reference value: 16.2%); format: functional
# [14] = test system: NCI-H1373; assay: Induction of apoptosis in human NCI-H1373 cells assessed as necrotic cells at 2.5 uM for 24 hrs by annexin V-PI staining based flow cytometric analysis (reference value: 5.5%); format: functional
# [15] = test system: A549; assay: Induction of apoptosis in human A549 cells assessed as late apoptotic cells at 1 uM by annexin V-PI based flow cytometric analysis (reference value: 2.5%); format: functional
# [16] = test system: NCI-H441; assay: Downregulation of XIAP protein expression level in human NCI-H441 cells at 1 uM for 24 hrs by […] analysis; format: functional, cell-based
# [17] = test system: LCLC-97TM1; assay: Downregulation of FLIP mRNA expression level in human LCLC-97TM1 cells at 0.1 to 1 uM for 24 hrs by qRT-PCR analysis; format: functional, cell-based; conditions: dose 0.1-1 µM
# [18] = test system: NCI-H1373; assay: Induction of TRAIL dependent apoptosis in human NCI-H1373 cells assessed as viable cells at 1 uM in presence of […] by annexin V-PI staining based flow cytometric analysis (reference value: 87.6%); format: functional; conditions: read-out: Activity
# [19] = test system: A549; assay: Induction of apoptosis in human A549 cells assessed as early apoptotic cells at 1 uM in presence of cisplatin by annexin V-PI based flow cytometric analysis (reference value: 0.2%); format: functional
# [20] = test system: A549; assay: Induction of cell cycle arrest in human A549 cells assessed as accumulation of cells at G2/M phase at 0.5 uM for 24 hrs by Click-iT EdU Alexa Fluor 647 flow cytometric assay kit analysis (reference value: 3%); format: functional
# [21] = test system: NCI-H460; assay: Downregulation of XIAP protein expression level in human NCI-H460 cells at 1 uM for 24 hrs by […] analysis; format: functional, cell-based
# [22] = test system: A549; assay: Induction of cell cycle arrest in human A549 cells assessed as accumulation of cells at G2/M phase at 1 uM for 24 hrs by Click-iT EdU Alexa Fluor 647 flow cytometric assay kit analysis (reference value: 3%); format: functional
# [23] = test system: A549; assay: Induction of cell cycle arrest in human A549 cells assessed as accumulation of cells at S phase at 1 uM for 24 hrs by DAPI staining analysis (reference value: 36%); format: functional
# [24] = test system: DV-90; assay: Induction of cell cycle arrest in human DV-90 cells assessed as accumulation of cells at G0/G1 phase at 0.5 uM for 24 hrs by Click-iT EdU Alexa Fluor 647 flow cytometric assay kit analysis (reference value: 47%); format: functional
# [25] = test system: DV-90; assay: Induction of cell cycle arrest in human DV-90 cells assessed as accumulation of cells at G2/M phase at 0.25 uM for 24 hrs by Click-iT EdU Alexa Fluor 647 flow cytometric assay kit analysis (reference value: 21%); format: functional
# [26] = test system: DV-90; assay: Induction of cell cycle arrest in human DV-90 cells assessed as accumulation of cells at G0/G1 phase at 0.25 uM for 24 hrs by Click-iT EdU Alexa Fluor 647 flow cytometric assay kit analysis (reference value: 47%); format: functional
# [27] = test system: DV-90; assay: Induction of cell cycle arrest in human DV-90 cells assessed as accumulation of cells at G2/M phase at 0.1 uM for 24 hrs by Click-iT EdU Alexa Fluor 647 flow cytometric assay kit analysis (reference value: 21%); format: functional
# [28] = test system: NCI-H1373; assay: Induction of apoptosis in human NCI-H1373 cells assessed as late apoptotic cells at 0.5 uM for 24 hrs by annexin V-PI staining based flow cytometric analysis (reference value: 22.3%); format: functional
# [29] = test system: DV-90; assay: Induction of apoptosis in human DV-90 cells assessed as early apoptotic cells at 2.5 uM for 48 hrs by annexin V-PI staining based flow cytometric analysis (reference value: 1.0%)
# [30] = test system: NCI-H1373; assay: Induction of apoptosis in human NCI-H1373 cells assessed as necrotic cells at 0.5 uM for 24 hrs by annexin V-PI staining based flow cytometric analysis (reference value: 4.4%); format: functional
# [31] = test system: DV-90; assay: Induction of apoptosis in human DV-90 cells assessed as necrotic cells at 2.5 uM for 24 hrs by annexin V-PI staining based flow cytometric analysis (reference value: 8.4%); format: functional
# [32] = test system: DV-90; assay: Induction of cell cycle arrest in human DV-90 cells assessed as accumulation of cells at G0/G1 phase at 0.5 uM for 24 hrs by Click-iT EdU Alexa Fluor 647 flow cytometric assay kit analysis (reference value: 45%); format: functional
# [33] = test system: NCI-H1373; assay: Induction of cell cycle arrest in human NCI-H1373 cells assessed as accumulation of cells at G0/G1 phase at 0.1 uM for 24 hrs by Click-iT EdU Alexa Fluor 647 flow cytometric assay kit analysis (reference value: 45%); format: functional
structure (smiles),measurement,setting,value
Cc1sc2c(c1C)C(c1ccc(Cl)cc1)=N[C@@H](CC(=O)OC(C)(C)C)c1nnc(C)n1-2,Activity,[1],0.1%
same,Activity,[2],Active
same,Activity,[3],21%
same,Activity,[4],Active
same,Activity,[5],Dose-Dependent Effect
same,Activity,[6],Active
same,viability at 2.5 µM,[7],97%
same,Activity,[8],7%
same,Activity,[9],12%
same,Activity,[10],17%
same,Activity,[11],Active
same,Activity,[12],Active
same,Activity,[13],20.2%
same,Activity,[14],17.2%
same,Activity,[15],1.2%
same,Activity,[16],Active
same,Activity,[17],Active
same,viability at 1 µM,[18],17.8%
same,Activity,[19],2.2%
same,Activity,[20],3%
same,Activity,[21],Active
same,Activity,[22],4%
same,Activity,[23],32%
Cc1sc2c(c1C)C(c1ccc(Cl)cc1)=N[C@@H](CC(=O)Nc1ccc(O)cc1)c1nnc(C)n1-2 [BIRABRESIB],Activity,[24],56%
same,Activity,[25],26%
same,Activity,[26],52%
same,Activity,[27],29%
same,Activity,[28],20.5%
same,Activity,[29],2.6%
same,Activity,[30],9.6%
same,Activity,[31],33.7%
CCNC(=O)C[C@@H]1N=C(c2ccc(Cl)cc2)c2cc(OC)ccc2-n2c(C)nnc21 [MOLIBRESIB],Activity,[32],47%
same,Activity,[33],46%
